Experimental findings from patent US8058507B2, “HOPM1 mediated disease resistance to Pseudomonas syringae in Arabidopsis” (priority 2007, dated 2011) are described below.

Residues, ends and D or L forms follow the SMILES beside them. *: point of attachment. Cbz = O=C(OCc1ccccc1)*

Series [1] concerns transgenic plants expressing full-length HopM1. In words: DEX spraying of transgenic plants expressing full-length HopM1. Format: in vivo, Arabidopsis.
In a further series the test system is AtMIN7. Description: Proteasome/protease inhibitors on HopM1-mediated destabilization of AtMIN7 in N. benthamiana leaves (immunoblot). Format: cell-based, Arabidopsis thaliana. The following applies: AtMIN7:HA and 6×His:HopM1 1-712 co-expressed. The method, then: AtMIN-HA and 6×His-HopM1 proteins were detected using the HA and 6×His epitope antibodies, respectively. AtMIN7-HA was pulled down with HopM1-300 but not with 6×His-HopM1301-712; and (C) Western blot and reverse transcription polymerase chain reaction analyses of HopM1-dependent destabilization of AtMIN7 in Arabidopsis plants. Leaves of Col-0 gl1 plants were infiltrated with water or 1×10^8 CFUs per milliliter of DCEL mutant bacteria with or without pORF43 and harvested 10 hours later. The endogenousAtMIN7 protein—detected with the use of a rabbit polyclonal AtMIN7 antibody—was absent in leaves infiltrated with DCEL mutant bacteria (pORF43) that produce HopM1; however, the AtMIN7 transcript level was not reduced. […] AtMIN7:HA and 6×His:HopM11-712 proteins were detected with HA and 6×His epitope antibodies, respectively.
N. benthamiana plants were transiently transformed with HopM1 and AtMIN proteins. In brief, fully expanded N. benthamiana leaves were co-infiltrated with Agrobacterium tumefaciens C58 C1 (for an example of co-infiltration techniques, see, Hellens, et al. (2005) Plant Methods, 1:13; herein incorporated by reference) comprising plasmids and genes described herein (for example, see, Bechtold, et al. (1993) Comptes Rendus De L Academie Des Sciences Serie Iii-Sciences De La Vie-Life Sciences 316(10):1194-1199; herein incorporated by reference). […]
Background: In western blotting, separated proteins are transferred to a membrane and probed.

Another series has as its target T1, AtMIN7-HA (Arabidopsis thaliana, UniProt F4IXW2, DEL212-213/INS429[…]).
T1 construct: expressed in transfected cells; host or cells: Nicotiana benthamiana leaves, Agrobacterium tumefaciens C58C1 co-infiltration (pBI121-AtMIN or pBAR1-AtMIN, CaMV 35S promoter)
In words: Protein pull-down assay in N. benthamiana leaves. Format: binding. The settings on record: Ni-NTA pull-down, immunoblot. An excerpt: N. benthamiana plants were transiently transformed with HopM1 and AtMIN proteins. In brief, fully expanded N. benthamiana leaves were co-infiltrated with Agrobacterium tumefaciens C58 C1 (for an example of co-infiltration techniques, see, Hellens, et al. (2005) Plant Methods, 1:13; herein incorporated by reference) comprising plasmids and genes described herein (for example, see, Bechtold, et al. (1993) Comptes Rendus De L Academie Des Sciences Serie Iii-Sciences De La Vie-Life Sciences 316(10):1194-1199; herein incorporated by reference).
Protein pull-down analysis methods: N. benthamiana leaf discs were homogenized in lysis buffer (50 mM Tris-HCl pH=8.0, 250 mM NaCl, 10 mM β-mercaptoethanol, 1% Triton X100, 1 mM PMSF, plant protease inhibitor cocktail [Sigma Co.]). Total protein extracts were collected after centrifugation of the homogenate at 20,000-×g for 15 min at 4° C. to remove insoluble materials. The supernatant was incubated with Ni-NTA agarose beads (Qiagen) with gentle shaking for 1 hour at 4° C., followed by centrifugation at 15,000-×g for 1 min to pull down 6×His-HopM1 and its interacting proteins. Beads were then washed three times with lysis buffer and resuspended in 1×SDS-PAGE sample buffer for SDS-PAGE gel and/or immunoblot analyses. […] AtMIN10-HA was detected using the HA epitope antibody.

Another series deals with Pst DC3000 ΔCEL mutant. In words: Bacterial multiplication and disease symptoms in HopM1 transgenic Arabidopsis plants. It is filed as in vivo, Pseudomonas syringae. The following applies: protein expressed in transgenic Arabidopsis (Col-0 gl1), DEX-induced. How it is done:
Following inoculation, infected plants were monitored daily over a 3- to 4-day period for symptom development and bacterial multiplication. For experiments described in FIGS. 1 and 5, plants were sprayed with 30 μM dexamethasone (DEX) 24 h before bacterial inoculation (1×10^6 cfu/ml).
Leaves were harvested and surface sterilized as follows: 1) whole leaves were removed from a host plant and gently mixed in a 70% ethanol solution for 1 minute. Leaves were blotted briefly on paper towels then rinsed in sterile distilled water for 1 minute, then blotted dry on paper towels. Leaf disks were excised from leaves with a 0.5 cm^2 or smaller cork borer, depending on the size of the sample leaves; 2) leaf disks from the leaves of 2 or more independent replicate plants were pooled for a single tissue sample and placed in a 1.5-mL microfuge tube with 100 μL sterile distilled water, the amount of leaf tissue per tube was recorded as leaf surface area. Three or more samples were harvested for each time point. […] The number of serial dilutions necessary to get countable colonies were determined for each sample, however dilutions to 10^−7 were usually sufficient for any bacterial strain; 7) The samples were plated on the appropriate medium (e.g., Low salt Luria Bertani) supplemented with the necessary antibiotics to select for the specific inoculated bacterial strain. […]

T1 sequence (F4IXW2 with tags, fused parts or gaps DEL212-213/INS429[withheld]): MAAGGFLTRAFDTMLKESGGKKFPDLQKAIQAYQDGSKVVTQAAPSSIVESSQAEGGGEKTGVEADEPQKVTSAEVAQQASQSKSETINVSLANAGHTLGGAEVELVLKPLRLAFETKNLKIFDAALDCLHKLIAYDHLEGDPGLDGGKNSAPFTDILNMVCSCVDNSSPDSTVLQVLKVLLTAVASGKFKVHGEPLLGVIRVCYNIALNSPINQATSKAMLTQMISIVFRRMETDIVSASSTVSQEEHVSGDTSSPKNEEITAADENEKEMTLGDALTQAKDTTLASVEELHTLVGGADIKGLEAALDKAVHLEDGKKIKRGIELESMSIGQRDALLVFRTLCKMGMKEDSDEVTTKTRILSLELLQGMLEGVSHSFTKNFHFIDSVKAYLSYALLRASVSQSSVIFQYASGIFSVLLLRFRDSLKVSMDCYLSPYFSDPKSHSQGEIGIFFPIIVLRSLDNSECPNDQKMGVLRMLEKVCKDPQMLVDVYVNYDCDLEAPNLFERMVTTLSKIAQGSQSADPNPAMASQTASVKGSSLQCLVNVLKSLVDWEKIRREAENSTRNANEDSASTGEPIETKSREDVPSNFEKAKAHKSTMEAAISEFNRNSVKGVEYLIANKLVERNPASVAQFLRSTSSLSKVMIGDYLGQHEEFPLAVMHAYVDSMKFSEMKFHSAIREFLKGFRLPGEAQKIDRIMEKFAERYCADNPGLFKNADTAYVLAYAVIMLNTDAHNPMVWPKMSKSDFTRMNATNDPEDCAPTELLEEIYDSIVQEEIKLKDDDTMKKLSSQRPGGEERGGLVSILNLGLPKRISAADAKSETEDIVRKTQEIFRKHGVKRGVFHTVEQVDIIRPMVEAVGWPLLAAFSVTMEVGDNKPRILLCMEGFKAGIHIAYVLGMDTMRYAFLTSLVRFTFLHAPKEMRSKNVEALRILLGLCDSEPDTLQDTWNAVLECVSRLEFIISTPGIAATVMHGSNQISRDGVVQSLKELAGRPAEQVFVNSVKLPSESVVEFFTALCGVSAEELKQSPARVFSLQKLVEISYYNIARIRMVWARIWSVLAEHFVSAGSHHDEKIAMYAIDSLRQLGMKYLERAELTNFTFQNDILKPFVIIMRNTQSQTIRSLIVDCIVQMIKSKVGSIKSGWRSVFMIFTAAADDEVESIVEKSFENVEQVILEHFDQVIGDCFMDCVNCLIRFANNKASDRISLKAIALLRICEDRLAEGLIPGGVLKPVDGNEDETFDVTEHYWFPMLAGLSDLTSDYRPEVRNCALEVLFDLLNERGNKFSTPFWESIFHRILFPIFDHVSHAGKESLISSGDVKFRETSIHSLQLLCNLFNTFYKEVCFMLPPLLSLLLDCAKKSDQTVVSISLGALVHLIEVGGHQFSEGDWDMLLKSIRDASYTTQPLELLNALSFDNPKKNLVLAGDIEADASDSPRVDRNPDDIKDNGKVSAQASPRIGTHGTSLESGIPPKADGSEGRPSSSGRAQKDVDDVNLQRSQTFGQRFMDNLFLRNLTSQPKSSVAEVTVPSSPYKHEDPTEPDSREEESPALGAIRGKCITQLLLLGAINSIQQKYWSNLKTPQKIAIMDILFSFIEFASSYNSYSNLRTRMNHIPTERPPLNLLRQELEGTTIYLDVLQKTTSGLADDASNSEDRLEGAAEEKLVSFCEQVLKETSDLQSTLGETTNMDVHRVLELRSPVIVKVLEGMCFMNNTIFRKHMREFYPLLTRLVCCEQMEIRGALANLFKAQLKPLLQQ

With `C[C@@H]1C[C@H]2[C@@H]3CCC4=CC(=O)C=C[C@]4(C)[C@@]3(F)[C@@H](O)C[C@]2(C)[C@@]1(O)C(=O)CO` [DEX, dexamethasone], the leaf necrosis result in series [1] (0.003 μM spray) is given as “did not induce leaf necrosis”. In addition, in series [1] (30 μM DEX spray), the leaf necrosis entry was “induced rapid leaf necrosis” and the “time to leaf necrosis” value is no more than 10 h. With `CC(C)C[C@@H](C=O)NC(=O)[C@H](CC(C)C)NC(=O)[C@H](CC(C)C)NC(=O)OCc1ccccc1` [MG132] (Cbz-Leu-Leu-Leu-aldehyde), in the series with AtMIN7, the “HopM1-mediated destabilization of AtMIN7” value is given as “blocked”. On the same count and under the same terms, under `CC[C@H](C)[C@H](NC(=O)[C@H]([C@@H](C)CC)N(C)C(C)=O)C(=O)N[C@H](C(=O)N[C@@H](CC(C)C)C(=O)[C@@]1(C)CO1)[C@@H](C)O` [epoxomicin] stands “blocked”.

B1: HopM1301-712: HopM1 truncated derivative, amino acids 301-712 (protein)
chain: GPIVAAAVPQFLSSMTHLGYVRLSTSDKLRDTIPETSSDANMLKASIIGMVAGIAHETVNSVVKPMFQAALQKTGLNERLNMVPMKAVDTNTVIPDPFELKSEHGELVKKTPEEVAQDKAFVKSERALLNQKKVQGSSTHPVGELMAYSAFGGSQAVRQMLNDVHQINGQTLSARALASGFGGAVSASSQTLLQLKSNYVDPQGRKIPVFTPDRAESDLKKDLLKGMDLREPSVRTTFYSKALSGIQSSALTSALPPVTAQAEGASGTLSAGAILRNMALAATGSVSYLSTLYTNQSVTAEAKALKAAGMGGATPMLDRTETALNNIRHPNRESLPHTFQKSTLSGIPRVAENAYHMGRGALQLPTQMAVDTVRVVDEGVLNAVASAREALKQPTKDDDALRALEEGLLDPR
modifications: left off: small tags and cut ends
For B1, the “physical interaction with AtMIN7-HA” value in the series with AtMIN7-HA was “no interaction”.

B2: HopM1101-712: HopM1 truncated derivative lacking the first 100 aa (SEQ ID NO:98) (protein, listed as Pseudomonas syringae)
chain: LLQAFKAEHGTAPVSGAPMISSRAALLIGSLLQAEPLPFEVMAEKLSPERYQLKQFQGSDLQQRLEKFAQPGQIPDKAEVGQLIKGFAQSVADQLEHFQLMHDASPATVGQHAKADKATLAVSQTALGEYAGRASKAIGEGLSNSIASLDEHISALDLTLQDAEQGNKESLHADRQALVDAKTTLVGLHADFVKSPEAKRLASVAAHTQLDNVVSDLVTARNTVGGWKGAGPIVAAAVPQFLSSMTHLGYVRLSTSDKLRDTIPETSSDANMLKASIIGMVAGIAHETVNSVVKPMFQAALQKTGLNERLNMVPMKAVDTNTVIPDPFELKSEHGELVKKTPEEVAQDKAFVKSERALLNQKKVQGSSTHPVGELMAYSAFGGSQAVRQMLNDVHQINGQTLSARALASGFGGAVSASSQTLLQLKSNYVDPQGRKIPVFTPDRAESDLKKDLLKGMDLREPSVRTTFYSKALSGIQSSALTSALPPVTAQAEGASGTLSAGAILRNMALAATGSVSYLSTLYTNQSVTAEAKALKAAGMGGATPMLDRTETALNNIRHPNRESLPHTFQKSTLSGIPRVAENAYHMGRGALQLPTQMAVDTVRVVDEGVLNAVASAREALKQPTKDDDALRALEEGLLDPR
B2: in the series on Pst DC3000 ΔCEL mutant, the “complementation of the virulence defect (multiplication, disease symptoms)” value was “partially restored”.
